# From patent US20250170212A1, “COMPOSITIONS AND METHODS OF TREATING AMYOTROPHIC LATERAL SCLEROSIS (ALS) AND RELATED DISORDERS” (BIOINCEPT, LLC, priority 2022, published 2025)
# System: IL-1α
# Test: Serum cytokine analysis, multiplex ELISA
# Assay type: in vivo, mouse
# Details: serum collected weekly; compared to Injury and mGRPs groups
# Protocol: Samples were collected every week, starting from day of graft transplantation (day 0), 100 μl of blood from mouse tail. Blood was stored 1 h in room temperature, and overnight in +4° C. Serum was gently aspirated, and centrifuged 10 min with 2000 RPM to separate blood morphotic bodies. Purified serum was stored in −80° C. until further analysis. Multiplex ELISA 23-cytokine kit (M60009RDPD) was obtained from Bio-Rad (Bio-Plex Pro Mouse Cytokine 23-plex Assay #M60009RDPD, Hercules, Bio-Rad, CA, USA, RRID: AB_2857368) and performed according to instructions. 50 μl of diluted in sample diluent, 1:4 serum samples and diluted at range 1:10-1:20. Measurement standards were used, diluted 9 times according to the protocol and added at template plate. Vortexed beads were added to the assay 96-well plate. Plate was again washed 3 times with wash buffer, then from template plate, 50 μl of samples, standards and blank were transferred to measurement plate with multichannel pipette. Plate was sealed with tape and incubated 30 min. After this time, plate was washed 3 times. 25 μl of detection antibody was added to the wells with multichannel pipette. Plate was sealed and incubated for 30 min. and next washed 3 times using wash buffer. […] Beads were resuspended with 125 μl of assay buffer and analysis was performed with Bio Plex 200 reader.
# All quantifications were performed including the manual cell counts in a blinded manner. The NeuN and Ibal were counted as positive cells in the ROI (see above) as previously reported. The number of cells was determined by unbiased counting of positive cells. […] Differences between groups were analyzed using a repeated measure ANOVA model with a fixed effect for the group, of the time and a random intercept for the mouse. In a second, more explorative, approach for each group the time when the physical activity was first measured below a certain threshold was determined. […] The clinically relevant threshold was determined according to previous observations and defined as value 0.9 for the Wire Test. […] The statistical significance at p<0.05 was then determined.
structure (smiles),measurement,value
"C=CC[C@@H]1/C=C(\C)C[C@H](C)C[C@H](OC)[C@H]2O[C@@](O)(C(=O)C(=O)N3CCCC[C@H]3C(=O)O[C@H](/C(C)=C/[C@@H]3CC[C@@H](O)[C@H](OC)C3)[C@H](C)[C@@H](O)CC1=O)[C@H](C)C[C@@H]2OC [Tac, Tacrolimus, reference compound]",peripheral IL-1α cytokine peak,decreased IL-1α peak significantly
